Laboratory results published in US20160326558A1, “Process for Stimulating Hyaluronic Acid Production with Ascorbic Acid Derivatives and the Composition Thereof” (CORUM INC., priority 2012, published 2016).
Values joined by “and” are separate entries in the source; they are usually repeats but may differ in a detail not shown here. Identical values can stand only once. “Also recorded” adds a separate entry of the source.

Experiments:
Format in all cases: cell-based
[1] = test system: mouse fibroblast (3T3); experiment: Stimulating hyaluronic acid production in mouse fibroblast, Echelon HA-ELISA (Example 1)
Excerpt: (§1) Cell Line: 3T3 (BCRC 60071, purchased from Bioresource Collection and Research Center) Complete Medium (as positive control): DMEM medium with 10% Fetal Bovine Serum (DMEM purchased from Corning Incorporated and Caisson Labs; FBS purchased from Caisson Labs) Starvation Medium (as negative control): DMEM medium with 0.1% Bovine Serum (DMEM purchased from Corning Incorporated and Caisson Labs; FBS purchased from Caisson Labs) Hyaluronan Enzyme-Linked Immunosorbent Assay Kit (HA-ELISA) (Brand: Echelon/Cat No K-1200) Complete medium is used in cell seeding stage. The confluent 3T3 cells are rinsed with sterile D-PBS, and trypsinize all cells and perform cell counting. Then, dilute the cell density to 4E+04/mL and seed 0.5 mL cell liquid (equals to 2E+04 cells) each well in 24 well plates. Incubate 3T3 cells at 37° C., 5% CO2 for about 24 hours. Starvation medium is used in this stage. The 24-hour-cultured 3T3 cells are rinsed with sterile D-PBS and discarded rinse buffer. Controls and testing materials in different concentrations are respectively added into the 3T3 cells in 24 well plates. Then, the 3T3 cells are incubated at 37° C., with 5% CO2 for about 72 hours. After incubating for about 72 hours, transfer some supernatant of cells treated with controls and testing materials into new containers. Centrifuge the supernatants at 2000 rpm for 5˜10 minutes. The hyaluronic acid content of the centrifuged supernatants are respectively determined by Hyaluronan Enzyme-Linked Immunosorbent Assay Kit, and calculated with the following Formula 1. [formula]

[2] = test system: human fibroblast (Hs68); experiment: Stimulating hyaluronic acid production in human fibroblast, Echelon HA-ELISA (Example 2); conditions: for Hyaluronic Acid Content Stimulated, Average / Hyaluronic Acid Content Stimulated, single entries: 72 h, vs negative control = 100%
Excerpt: as §1, with “Hs68” for “3T3”, “60038,” for “60071,”, “0.1% Fetal” for “0.1%”, “treating” for “treated”, “2.” for “1.”

[3] = test system: mouse fibroblast (3T3); experiment: Stimulating hyaluronic acid production in mouse fibroblast, R&D HA-ELISA (Examples 3 and 5); conditions: for Hyaluronic Acid Content Stimulated, Average / Hyaluronic Acid Content Stimulated, single entries: 72 h, vs negative control = 100%
Experimental: (§2) Complete medium is used in cell seeding stage. The confluent 3T3 cells are rinsed with sterile D-PBS, and trypsinize all cells and perform cell counting. Then, dilute the cell density to 4E+04/mL and seed 0.5 mL cell liquid (equals to 2E+04 cells) each well in 24 well plates. Incubate 3T3 cells at 37° C., 5% CO2 for about 24 hours. Starvation medium is used in this stage. The 24-hour-cultured 3T3 cells are rinsed with sterile D-PBS and discarded rinse buffer. Controls and testing materials in different concentrations are respectively added into the 3T3 cells in 24 well plates. Then, the 3T3 cells are incubated at 37° C., with 5% CO2 for about 72 hours. After incubating for about 72 hours, transfer some supernatant of cells treated with controls and testing materials into new containers. Centrifuge the supernatants at 2000 rpm for 5˜10 minutes. The hyaluronic acid content of the centrifuged supernatants are respectively determined by Hyaluronan Enzyme-Linked Immunosorbent Assay Kit, and calculated with the following Formula 1. [formula] In this example, we try another brand HA-ELISA kit (R&D; Cat No. DHYAL0) to figure out the reproducibility of the stimulatory effect. Excluding replacing the HA-ELISA kit, the materials and the procedures can be referred to the above Example 1. In this example, we try to figure out whether the stimulatory effect also can be found on ascorbic acid. Excluding replacing the HA-ELISA kit to another brand HA-ELISA kit (R&D; Cat No. DHYAL0) and replacing the testing material to ascorbic acid, the other materials and the procedures can be referred to the above Example 1.

[4] = test system: human fibroblast (Hs68); experiment: Stimulating hyaluronic acid production in human fibroblast, R&D HA-ELISA (Example 4); conditions: for Hyaluronic Acid Content Stimulated, Average / Hyaluronic Acid Content Stimulated, single entries: 72 h, vs negative control = 100%
Experimental: as §2, with “Hs68” for “3T3”, “treating” for “treated”, “2.” for “1.”, “study” for “figure out”, “2.” for “1. In this example, we try to figure out whether the stimulatory effect also can be found on ascorbic acid. Excluding replacing the HA-ELISA kit to another brand HA-ELISA kit (R&D; Cat No. DHYAL0) and replacing the testing material to ascorbic acid, the other materials and the procedures can be referred to the above Example 1.”

[5] = test system: mouse fibroblast (3T3); experiment: Hyaluronic acid content stimulated by 3-O-ethyl ascorbic acid and AA2G in mouse fibroblast (Table 6); conditions: for Hyaluronic Acid Content Stimulated, Average / Hyaluronic Acid Content Stimulated, single entries: vs negative control = 100%
[6] = test system: mouse fibroblast (3T3); experiment: Cell viability of mouse fibroblast (Example 1); conditions: concentration larger than 7500 ppm
[7] = test system: human fibroblast (Hs68); experiment: Cell viability of human fibroblast (Example 2); conditions: 10000 ppm
[8] = 5000 ppm, 72 h, vs negative control = 100%

Compound: CCOC1=C(O)C(=O)O[C@@H]1[C@@H](O)CO [3-O-ethyl-ascorbic acid]
- stimulated hyaluronic acid production (in words) ([1]; 10-5000 ppm): efficiently increased
- Hyaluronic Acid Content Stimulated, Average ([1]; 10 ppm, 72 h, vs negative control = 100%): 164.6%
- Hyaluronic Acid Content Stimulated, Average ([1]; 100 ppm, 72 h, vs negative control = 100%): 133.1%
- Hyaluronic Acid Content Stimulated, Average ([1]; 1000 ppm, 72 h, vs negative control = 100%): 148.9%
- Hyaluronic Acid Content Stimulated, Average ([1]; 2500 ppm, 72 h, vs negative control = 100%): 165.0%
- Hyaluronic Acid Content Stimulated, Average [1, 8]: 149.0%
- Hyaluronic Acid Content Stimulated, single entries [1, 8]: 110.3% and 214.1% and 161.9% and 109.6%
- Hyaluronic Acid Content Stimulated, Average ([1]; 7500 ppm, 72 h, vs negative control = 100%): 91.0%
- Hyaluronic Acid Content Stimulated, Average ([1]; 10000 ppm, 72 h, vs negative control = 100%): 89.4%
- Hyaluronic Acid Content Stimulated, Average ([2]; 10 ppm): 107.2%
- Hyaluronic Acid Content Stimulated, single entries ([2]; 10 ppm): 92.7% and 123.3% and 105.7%
- Hyaluronic Acid Content Stimulated, Average ([2]; 100 ppm): 148.8%
- Hyaluronic Acid Content Stimulated, single entries ([2]; 100 ppm): 200.9% and 130.3% and 115.1%
- stimulated hyaluronic acid production, dose dependence (in words) ([2]; 1000-10 ppm): dose-dependently
- Hyaluronic Acid Content Stimulated, Average ([2]; 1000 ppm): 182.7%
- Hyaluronic Acid Content Stimulated, single entries ([2]; 1000 ppm): 170.1% and 172.6%
- Hyaluronic Acid Content Stimulated, Average ([2]; 10000 ppm): 32.5%
- Hyaluronic Acid Content Stimulated, Average ([3]; 1.25 ppm): 143.0%
- Hyaluronic Acid Content Stimulated, single entries ([3]; 1.25 ppm): 100.0% and 156.8% and 172.0%
- Hyaluronic Acid Content Stimulated, Average ([3]; 2.5 ppm): 145.9%
- Hyaluronic Acid Content Stimulated, single entries ([3]; 2.5 ppm): 119.7% and 135.2% and 182.8%
- Hyaluronic Acid Content Stimulated, Average ([3]; 5 ppm): 137.1%
- Hyaluronic Acid Content Stimulated, Average ([3]; 7.5 ppm): 135.9%
- Hyaluronic Acid Content Stimulated, single entries ([3]; 7.5 ppm): 115.9% and 143.8% and 148.1%
- Hyaluronic Acid Content Stimulated, Average ([3]; 10 ppm, Table 3): 147.1%
- Hyaluronic Acid Content Stimulated, single entries ([3]; 10 ppm, Table 3): 101.0% and 158.1% and 182.2%
- Hyaluronic Acid Content Stimulated, Average ([3]; 100 ppm, Table 3): 171.2%
- Hyaluronic Acid Content Stimulated, single entries ([3]; 100 ppm, Table 3): 166.8% and 155.7% and 191.2%
- Hyaluronic Acid Content Stimulated, Average ([3]; 1000 ppm): 177.8%
- Hyaluronic Acid Content Stimulated, Average ([3]; 2500 ppm): 159.3%
- Hyaluronic Acid Content Stimulated, single entries ([3]; 2500 ppm): 148.7% and 176.3% and 152.8%
- stimulated hyaluronic acid production, dose dependence (in words) ([3]; 5000-5 ppm): dose-dependently
- Hyaluronic Acid Content Stimulated, Average ([3]; 5000 ppm): 184.2%
- Hyaluronic Acid Content Stimulated, single entries ([3]; 5000 ppm): 131.8% and 180.4%
- Hyaluronic Acid Content Stimulated, Average ([3]; 7500 ppm): 143.8%
- Hyaluronic Acid Content Stimulated, single entries ([3]; 7500 ppm): 119.9% and 130.8% and 180.7%
- Hyaluronic Acid Content Stimulated, Average ([3]; 10000 ppm): 109.0%
- Hyaluronic Acid Content Stimulated, Average ([4]; 1.25 ppm): 112.6%
- Hyaluronic Acid Content Stimulated, single entries ([4]; 1.25 ppm): 102.1% and 126.8% and 102.4% and 119.0%
- Hyaluronic Acid Content Stimulated, Average ([4]; 2.5 ppm): 136.7%
- Hyaluronic Acid Content Stimulated, single entries ([4]; 2.5 ppm): 149.7% and 125.3% and 111.4% and 160.5%
- Hyaluronic Acid Content Stimulated, Average ([4]; 5 ppm): 123.1%
- Hyaluronic Acid Content Stimulated, single entries ([4]; 5 ppm): 110.6% and 110.9% and 103.8% and 167.0%
- Hyaluronic Acid Content Stimulated, Average ([4]; 7.5 ppm): 134.0%
- Hyaluronic Acid Content Stimulated, Average ([4]; 10 ppm): 97.7%
- Hyaluronic Acid Content Stimulated, single entries ([4]; 10 ppm): 89.1% and 101.2% and 91.2% and 109.5%
- Hyaluronic Acid Content Stimulated, Average ([4]; 100 ppm): 121.9%
- Hyaluronic Acid Content Stimulated, Average ([4]; 1000 ppm): 133.9%
- Hyaluronic Acid Content Stimulated, single entries ([4]; 1000 ppm): 125.4% and 134.8% and 122.6% and 152.7%
- Hyaluronic Acid Content Stimulated, Average ([4]; 2500 ppm): 103.6%
- Hyaluronic Acid Content Stimulated, single entries ([4]; 2500 ppm): 99.2% and 96.7% and 78.7% and 140.0%
- Hyaluronic Acid Content Stimulated, Average ([4]; 5000 ppm): 91.0%
- Hyaluronic Acid Content Stimulated, single entries ([4]; 5000 ppm): 110.0% and 70.6% and 103.2% and 80.3%
- Hyaluronic Acid Content Stimulated, Average ([4]; 7500 ppm): 73.1%
- Hyaluronic Acid Content Stimulated, Average ([4]; 10000 ppm): 40.7%
- Hyaluronic Acid Content Stimulated, single entries ([4]; 10000 ppm): 50.9% and 32.1% and 37.2% and 42.4%
- stimulated hyaluronic acid production, dose dependence (in words) ([4]; about 1000-10 ppm): dose-dependently
- Hyaluronic Acid Content Stimulated, Average ([5]; 10 ppm): 122%
- Hyaluronic Acid Content Stimulated, single entries ([5]; 10 ppm): 125% and 122% and 118%
- Hyaluronic Acid Content Stimulated, Average ([5]; 100 ppm): 138%
- Hyaluronic Acid Content Stimulated, single entries ([5]; 100 ppm): 115% and 161% and 138%
- Hyaluronic Acid Content Stimulated, Average ([5]; 1000 ppm): 171%
- Hyaluronic Acid Content Stimulated, single entries ([5]; 1000 ppm): 180% and 165% and 168%
- stimulatory of producing hyaluronic acid (in words) ([5]; Table 6, 10-1000 ppm): helpful to the stimulatory of producing hyaluronic acid
- cell viability [6]: inhibited
- cell viability [7]: inhibited

Compound: O=C1O[C@H]([C@@H](O)CO)C(O)=C1O [Ascorbic Acid, ascorbic acid]
- stimulation of hyaluronic acid production (in words) ([3]; 2-100 ppm, comparing to the negative control): can NOT stimulate hyaluronic acid production; also recorded: cannot be helpful
- Hyaluronic Acid Content Stimulated, Average ([3]; 2 ppm, Table 5): 94%
- Hyaluronic Acid Content Stimulated, single entries ([3]; 2 ppm, Table 5): 99% and 64% and 119%
- Hyaluronic Acid Content Stimulated, Average ([3]; 10 ppm, Table 5): 101%
- Hyaluronic Acid Content Stimulated, single entries ([3]; 10 ppm, Table 5): 93% and 108% and 101%
- Hyaluronic Acid Content Stimulated, Average ([3]; 50 ppm, Table 5): 102%
- Hyaluronic Acid Content Stimulated, single entries ([3]; 50 ppm, Table 5): 105% and 100% and 102%
- Hyaluronic Acid Content Stimulated, Average ([3]; 100 ppm, Table 5): 91%
- Hyaluronic Acid Content Stimulated, single entries ([3]; 100 ppm, Table 5): 87% and 93% and 94%
